Where “and” joins values, the source holds several entries; their conditions need not be identical. Equal values may be shown once.
Assays:
[1] = Microsomal stability, rat; assay type: in vitro ADME; conditions: rat microsomes; for CLint in vitro: independent replicate to Table 4; for CLint in vivo: scaled up using PBSF
Description: (§1) The metabolic stability assay was performed by incubating compounds individually (0.8, 4, or 20 µM) with mouse, rat, dog and human liver microsomes (Fisher, 0.5 mg/mL protein concentration) at 37 °C. The metabolic reaction was initiated by the addition of a NADPH-regenerating system and quenched at various time points by the addition of acetonitrile according to a published method.
(§2) The remaining concentration of each compound was measured as a ratio of peak area to the internal standard. The log peak area ratio was plotted vs. time (h), and the slope was determined to calculate the elimination rate constant [k = (− 2.303) * slope]. If deviation from first order kinetics was evident, only the initial linear portion of the plot was used to determine the rate constate, k. The half-life (h) was calculated as t1/2 = 0.693/k. Intrinsic clearance in vitro was calculated as CLintin vitro = (1000)*(0.693/t1/2*60)/0.5, where microsomal concentration in the reaction solution was 0.5 mg/mL; 1000 and 60 are scaling factors for volume (µL) and time (min), respectively. The intrinsic in vitro clearance was scaled to the intrinsic in vivo clearance using physiology based scaling factor (PBSF): CLint in vivo= CLint in vitro *PBSF: (microsome protein/gram liver) * (gram liver/kg b.w.), with PBSF: 47 (mouse), 47(rat), 58 (dog), 32 (human); and liver weight proportions: 54.9 (mouse), 36.6 (rat), 32.9 (dog) 25.7 (human).

[2] = Microsomal stability, mouse; assay type: in vitro ADME; conditions: mouse microsomes; for CLint in vitro: independent replicate to Table 4; for CLint in vivo: scaled up using PBSF
Description: as §1, §2

CYP3A4 = biological target: T1, CYP3A4 (Homo sapiens, UniProt P08684); assay: CYP450 inhibition, CYP3A4; assay type: in vitro ADME; conditions: 10 µM, probe substrate Midazolam, replicate measurements
T1 construct: purchased Cypex Ltd (Bactosomes)

CYP2C19 = biological target: T2, CYP2C19 (Homo sapiens, UniProt P33261); assay: CYP450 inhibition, CYP2C19; assay type: in vitro ADME; conditions: 10 µM, probe substrate S-mephenytoin, replicate measurements
T2 construct: purchased Cypex Ltd (Bactosomes)

[3] = Microsomal stability, dog; assay type: in vitro ADME; conditions: dog microsomes; for CLint in vitro: independent replicate to Table 4; for CLint in vivo: scaled up using PBSF
Description: as §1, §2

[4] = Mouse plasma pharmacokinetics, single PO or IV dose; assay type: in vivo, female C57BL/6 mice; conditions: for F: mouse
Description: Studies were undertaken to determine the plasma pharmacokinetics of SJ733 and SJ311. These studies included: (i) single oral gavage (PO) or intravenous (IV) dose administration to female C57BL/6 mice; (ii) single PO or IV dose administration to male Sprague Dawley (SD) rats; (iii) single PO or IV dose administration to male beagle dogs; (iv) toxicokinetic (TK) study following single PO administration to male SD rats. The PO and IV formulation used for mouse studies at SJCRH was 1% hydroxypropyl-beta-cyclodextrin (w/v), 10% ethanol (v/v), 10% propylene glycol (v/v), 40% PEG-400 (v/v) and 39% PBS (pH 7.4) isotonic (v/v). Compounds were dosed orally as suspensions, and intravenously as filtered solutions. Compound concentrations were confirmed post filtration using UV spectroscopy. The IV formulation used for rat studies (Monash University) was the same as that used for mice. For PO dosing to rats (Monash University) at 2 mg/kg, a suspension formulation was used containing 0.5% (w/v) hydroxypropyl methylcellulose, 0.5% (v/v) benzyl alcohol and 0.4% (v/v) Tween 80. The formulation used for rat studies at SRI (PO, high dose) was the same as that used in mouse PK studies. The formulation for the high dose TK study at SRI was 0.5% methylcellulose in sterile water. The formulation used for dog studies was the same as that used in mouse PK studies. The PO and IV PK of SJ733 and SJ311 were studied in female C57BL/6 mice. Mice had access to water and food ad libitum throughout the pre- and post-dose sampling period. Doses were administered at 15 mg/kg for IV and 10–200 mg/kg for PO with 20 mice in each dosage group. Two samples were taken from each mouse, with the first sample being a retro-orbital bleed (~ 200 µL) at the indicated time point (5, 15, 30 min, 1, 4, 24 h) and the second being terminal cardiac puncture (~ 500 µL) at the indicated time point (usually 48 h). EDTA disodium was used as anticoagulant and added to whole blood (10% volume of EDTA for 1% w/v final concentration) followed by centrifugation at 13,000 rpm for 2 min. Plasma was collected and stored frozen at -20 °C until analysis. For studies at SJCRH, all blood samples were kept on wet ice after collection and processed to plasma within 30 min of collection. Plasma samples were kept on dry ice and transferred to ≤ − 20 °C until analysis. Mouse plasma samples were extracted via protein precipitation with cold acetonitrile. The detection of the SJ733, SJ311, and warfarin (IS) was conducted by LC–MS with SIR or LC–MS/MS with MRM detection. Aliquots (3 µL) were injected onto a Waters Acquity UPLC equipped with an ABI Sciex 6500 Qtrap MS/MS and separated using an Acquity BEH C18 column (50 × 2.1 mm, 1.7 µm) with a methanol–water gradient containing 0.1% formic acid. Plasma concentration time (Ct) data for SJ733 and SJ311 were grouped by nominal time point, and the mean Ct values were subjected to noncompartmental analysis (NCA) using Phoenix WinNonlin 8.1 (Certara USA, Inc., Princeton, NJ). For all experiments, the area under the Ct and first moment curves (AUC, AUMC) were estimated using the “linear up log down” method. The terminal phase was defined as at least three time points at the end of the Ct profile, and the elimination rate constant (Kel) was estimated using an unweighted log-linear regression of the terminal phase. The terminal elimination half-life (T1/2) was estimated as 0.693/Kel, and the AUC from time 0 to infinity ([…]) was estimated as the AUC to the last time point (AUClast) + Clast (predicted)/Kel with the […] similarly calculated. Additional parameters estimated included observed maximum concentration (Cmax), time of Cmax (Tmax), concentration at the last observed time point (Clast), time of Clast (Tlast), and the apparent oral terminal volume of distribution (V/F). The apparent oral clearance (CL/F), systemic clearance (CL) and volume of distribution at steady state (Vss) were all estimated using standard formulae [19].

[5] = mouse plasma, single IV 15 mg/kg
[6] = mouse plasma, single PO 50 mg/kg
[7] = mouse plasma, single PO 200 mg/kg

T1 sequence (P08684 whole entry): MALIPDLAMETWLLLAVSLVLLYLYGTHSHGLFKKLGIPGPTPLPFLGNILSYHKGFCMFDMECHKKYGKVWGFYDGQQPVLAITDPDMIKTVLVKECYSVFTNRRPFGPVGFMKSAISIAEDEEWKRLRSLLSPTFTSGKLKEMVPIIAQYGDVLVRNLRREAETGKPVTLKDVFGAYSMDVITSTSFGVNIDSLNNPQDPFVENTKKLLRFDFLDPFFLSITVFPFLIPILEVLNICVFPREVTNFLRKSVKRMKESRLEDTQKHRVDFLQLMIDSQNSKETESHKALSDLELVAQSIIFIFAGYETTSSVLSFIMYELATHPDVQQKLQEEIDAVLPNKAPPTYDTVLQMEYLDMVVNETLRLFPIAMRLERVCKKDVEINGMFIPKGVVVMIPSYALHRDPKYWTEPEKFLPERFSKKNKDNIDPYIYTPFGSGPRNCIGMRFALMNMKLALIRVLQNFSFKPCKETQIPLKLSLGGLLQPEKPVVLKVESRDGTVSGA
T2 sequence (P33261 whole entry): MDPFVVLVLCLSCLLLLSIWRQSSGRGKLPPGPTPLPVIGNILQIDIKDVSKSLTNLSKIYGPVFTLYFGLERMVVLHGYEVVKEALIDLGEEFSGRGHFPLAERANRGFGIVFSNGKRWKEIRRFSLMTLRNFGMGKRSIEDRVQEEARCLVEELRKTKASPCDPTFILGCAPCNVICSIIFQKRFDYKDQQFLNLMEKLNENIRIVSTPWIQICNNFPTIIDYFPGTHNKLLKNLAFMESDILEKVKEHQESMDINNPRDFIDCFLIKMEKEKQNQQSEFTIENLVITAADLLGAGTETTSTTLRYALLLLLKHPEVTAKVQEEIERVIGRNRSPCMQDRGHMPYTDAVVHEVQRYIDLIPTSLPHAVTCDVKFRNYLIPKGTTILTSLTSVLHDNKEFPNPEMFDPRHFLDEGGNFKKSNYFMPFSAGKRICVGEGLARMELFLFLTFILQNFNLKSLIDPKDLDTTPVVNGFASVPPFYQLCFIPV

N#Cc1cc(NC(=O)C2c3ccccc3C(=O)N(CC(F)(F)F)C2c2cccnc2)ccc1F (racemic) [(r)-SJ733]
CLint in vitro ([1]; 0.8 µM): <7 µl/min/mg protein | CLint in vivo ([1]; 0.8 µM): <11.7 mL/min/kg | CLint in vitro ([1]; 4 µM): <7 µl/min/mg protein | CLint in vivo ([1]; 4 µM): <11.7 mL/min/kg | CLint in vitro ([1]; 20 µM): <7 µl/min/mg protein | CLint in vivo ([1]; 20 µM): <11.7 mL/min/kg | CLint in vitro ([2]; 0.8 µM): 9.1 ± 0.5 µl/min/mg protein | CLint in vivo ([2]; 0.8 µM): 21.4 ± 1.3 mL/min/kg | CLint in vitro ([2]; 4 µM): 10 ± 0.5 µl/min/mg protein | CLint in vivo ([2]; 4 µM): 23.4 ± 1.1 mL/min/kg | CLint in vitro ([2]; 20 µM): <7 µl/min/mg protein | CLint in vivo ([2]; 20 µM): < 13.5 mL/min/kg | inhibition of CYP3A4 (CYP3A4): 42% and 33% | inhibition of CYP2C19 (CYP2C19): 5, 5% | CLint in vitro ([3]; 0.8 µM): <7 µl/min/mg protein | CLint in vivo ([3]; 0.8 µM): <8.3 mL/min/kg | CLint in vitro ([3]; 4 µM): <7 µl/min/mg protein | CLint in vivo ([3]; 4 µM): <8.3 mL/min/kg | CLint in vitro ([3]; 20 µM): <7 µl/min/mg protein | CLint in vivo ([3]; 20 µM): <8.3 mL/min/kg | AUCinf [4, 5]: 10.8 µM·h | CL [4, 5]: 49.7 mL/min/kg | Cmax [4, 5]: 11.3 µM | Half-life [4, 5]: 1.52 h | Vss [4, 5]: 2.41 L/kg | AUCinf [4, 6]: 28 µM·h | CL/F [4, 6]: 67 mL/min/kg | Cmax [4, 6]: 10.1 ± 4.5 µM | Half-life [4, 6]: 1.72 h | Tmax [4, 6]: 0.5 h | AUCinf [4, 7]: 155.7 µM·h | CL/F [4, 7]: 54.2 mL/min/kg | Cmax [4, 7]: 12.7 ± 3.2 µM | Half-life [4, 7]: 14.1 h | Tmax [4, 7]: 5 h | V/F [4, 7]: 3.23 L/kg | F ([4]; single PO 50 mg/kg vs IV): 70% | F ([4]; single PO 200 mg/kg vs IV): 98%

From paper PMC7893776, “Selecting an anti-malarial clinical candidate from two potent dihydroisoquinolones” (Malaria Journal, 2021)
